# Reference: US5773573A, “HIV peptides” (priority 1994, dated 1998)
# Like-named read-outs stand apart in the source and are kept apart here. Residues, ends and D or L forms follow the SMILES beside them.
# Assays:
# HIV = test: Cellular TCID Assay on PBMC of HIV infected patient given HEP1; format: in vivo; settings: patient three; for TCID, normalised data (day 1 = 100): oral HEP1 10 mg daily day 2-22
# Procedure: (§1) The objective of this study was to determine in an HIV infected patient if the induction of immunological tolerance to HEP1 could reduce immune activation and HIV infection. The design of the first clinical experiment was to orally administer HEP1 to the patient in daily 10 mg doses (the lower end of the preferred dose range). This was then followed approximately three months later with a subcutaneous administration of HEP1 at a higher dose of 140 mg. To assess the therapeutic benefit of HEP1, the following disease progression markers were measured by taking blood samples before, during and after each trial and determining: HIV levels by a p24 antigen assay, HIV infectivity by a cellular TCID assay and immune activation by quantitating levels of various lymphocytes.
# Cellular TCID is a technique that measures the relative amount of viral load within cells. Within four hours of a sample being taken from the HIV infected patient, 10^6 viable PBMC from the sample were obtained by centrifugation of the anticoagulated blood over Ficoll-Hypaque lymphocyte separation medium. A serial dilution of the patients cells was set up in a 24 well plate in decreasing amounts (1:1, 1:4, 1:16, 1:64 and 1:256 and a negative control using 0.9 ml special media (RPMI-1640) supplemented with 15% fetal calf serum and 10% interleukin 2. Infected cells were then cocultivated with 10^6 PBMC derived from an uninfected human donor that had been stimulated for 24-48 hours with phytohaemagglutin (PHA) to activate the cells to make them susceptible to infection by HIV. The cocultures were subsequently monitored for the presence of p24 antigen in the supernatant fluid twice weekly for up to 14 days, during this period the plates were spun on days 4,7,11 and 14 and then a 50% medium change was performed. […]
# (§2) The following markers of HIV disease progression were assayed: p24Ag (the concentration of HIV p24 protein in picogram/ml in the blood), TCID (the infectivity of the HIV in the cells of blood sample measured by an in vitro cell culture assay in which a serial dilution of the sample was mixed with activated uninfected PBMC and the level of HIV infection determined by p24Ag assay), total white count (immune activation measured by the number of white cells per mm^3), CD4 (the number of CD4 positive cells per mm^3), CD8 (the number of CD8 positive cells per mm^3), NK (the number of Natural Killer cells per mm^3), Lymphocytes (the number of cells per mm^3), Monocytes (the number of cells per mm^3), and Granulocytes (the number of cells per mm^3). Normalised data was calculated by dividing each data point by the value of its data series on day 1 of the trail and multiplying by 100.
# HIV p24 antigen = test: p24Ag Assay on blood samples of HIV infected patient given HEP1; format: in vivo; settings: patient three
# Procedure: as §1
# p24Ag is a marker of HIV infection as well as a predictor of HIV disease progression. The p24Ag assay measures p24 antigen from the core of HIV and is an immunoassay using murine monoclonal antibody coated onto microwell strips. The assay detects HIV in plasma, serum or tissue culture medium. If present, the antigen binds to the antibody-coated microwells. The bound antigen is recognised by biotinylated antibodies to HIV which react with conjugated strepavidin-horseradish peroxidase. Colour develops from the reaction of the peroxidase with hydrogen peroxidase in the presence of tetramethylbenzidine (TMB) substrate. Specimens which are HIV p24Ag positive can be quantitated by setting up a standard curve using serial dilutions of the Antigen Reagent. The assay is not accurate below 30 picograms per ml.
# as §2
# [1] = patient three
# Procedure: Oral administration of HEP1 solution containing 10 mg HEP1 was started on day 2 of the trial and continued until day 22. Further Blood samples were taken for analysis on day 7, day 14, day 21 and day 28 of the trial (7 days after the last dose of HEP1).
# [2] = oral administration of HEP1 (FIG. 2)
# [3] = orally administered HEP1 10 mg daily
# [4] = oral HEP1 10 mg daily day 2-22, day 1, before first dose
# [5] = oral HEP1 10 mg daily day 2-22, day 7, during treatment
# [6] = oral HEP1 10 mg daily day 2-22, day 28, after treatment
# [7] = single subcutaneous HEP1 injection in the abdominal wall
structure (smiles),measurement,setting,value
"CC(C)[C@H](NC(=O)[C@@H](NC(=O)[C@H](CCC(=O)O)NC(=O)[C@H](CCCNC(=N)N)NC(=O)[C@H](CCCNC(=N)N)NC(=O)[C@H](CCCCN)NC(=O)[C@H](CCCCN)NC(=O)[C@H](CCC(=O)O)NC(=O)[C@@H](N)[C@@H](C)O)[C@@H](C)O)C(=O)N[C@@H](CCC(=O)O)C(=O)N[C@@H](CCCNC(=N)N)C(=O)N[C@@H](CCC(=O)O)C(=O)N[C@@H](CCCCN)C(=O)N[C@@H](CCC(=O)O)C(=O)O [HEP1, NH2 ThrGluLysLysArgArgGluThrValGluArgGluLysGluCOOH] (H-TEKKRRETVEREKE-OH)","TCID, normalised data (day 1 = 100)","HIV; day 1, before first dose",100
same,"TCID, normalised data (day 1 = 100)","HIV; day 28, after treatment",6
same,"HIV infectivity as measured by a TCID assay, course",HIV; [2],decline
same,reduction of the infectivity of HIV as measured by TCID,HIV; [3],16 X
same,p24Ag,HIV p24 antigen; [4],71 picogram/ml
same,"p24Ag, normalised data (day 1 = 100)",HIV p24 antigen; [4],100
same,p24Ag,HIV p24 antigen; [5],44 picogram/ml
same,"p24Ag, normalised data (day 1 = 100)",HIV p24 antigen; [5],62
same,p24Ag,HIV p24 antigen; [6],38 picogram/ml
same,"p24Ag, normalised data (day 1 = 100)",HIV p24 antigen; [6],54
same,"HIV virus particles as measured by p24Ag levels, course",HIV p24 antigen; [2],decline
same,persistence of the effect on p24Ag and TCID after treatment,HIV p24 antigen; [3],7 days
same,reduction of viral load as measured by p24Ag,HIV p24 antigen; [3],46%
same,p24Ag,"HIV p24 antigen; single subcutaneous HEP1 dose on day 1, day-91, end of oral study",38 picogram/ml
same,adverse reactions,[1]; oral HEP1 10 mg daily day 2-22,no adverse reactions
same,adverse reactions,[1]; [7],no other adverse reactions
same,duration of stinging sensation after injection,[1]; [7],approximately 15 minutes
